From patent US20170313669A1, “LACTONE COMPOUNDS AND METHODS OF MAKING AND USING SAME” (THE SCRIPPS RESEARCH INSTITUTE, priority 2015, published 2017)

How the values were obtained:
FAAH = target: T1, FAAH (Homo sapiens, UniProt O00519); assay: ABPP-SILAC of COLO205 membrane proteome treated with compound 8b; format: biochemical; conditions: 30 min
T1 construct: All ABPP-SILAC experiments were performed using the human COLO205 colon cancer cell line; endogenous in cells; host or cells: COLO205

ABHD16A [1] = target: T2, ABHD16A (Homo sapiens, UniProt O95870); assay: as above; format: biochemical; set-up: All ABPP-SILAC experiments were performed using the human COLO205 colon cancer cell line; endogenous in cells; host or cells: COLO205; conditions: 30 min
T2 sequence (O95870 1-558): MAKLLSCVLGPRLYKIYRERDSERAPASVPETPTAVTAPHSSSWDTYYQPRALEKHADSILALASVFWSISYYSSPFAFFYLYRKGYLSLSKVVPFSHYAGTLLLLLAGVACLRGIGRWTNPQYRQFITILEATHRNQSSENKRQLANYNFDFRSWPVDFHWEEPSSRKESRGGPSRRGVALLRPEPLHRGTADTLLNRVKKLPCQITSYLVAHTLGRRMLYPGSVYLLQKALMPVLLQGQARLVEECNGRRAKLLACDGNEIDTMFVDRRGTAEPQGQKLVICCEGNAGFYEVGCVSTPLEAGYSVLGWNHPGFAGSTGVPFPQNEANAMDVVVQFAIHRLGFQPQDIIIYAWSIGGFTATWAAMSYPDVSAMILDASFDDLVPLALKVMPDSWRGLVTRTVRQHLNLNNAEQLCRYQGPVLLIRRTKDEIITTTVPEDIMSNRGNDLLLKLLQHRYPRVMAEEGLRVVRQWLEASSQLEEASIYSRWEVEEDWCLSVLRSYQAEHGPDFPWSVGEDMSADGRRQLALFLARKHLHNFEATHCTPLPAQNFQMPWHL

ABHD3 = target: T3, ABHD3 (Homo sapiens, UniProt Q8WU67); assay: as above; format: biochemical; conditions: 30 min
T3 construct: All ABPP-SILAC experiments were performed using the human COLO205 colon cancer cell line; endogenous in cells; host or cells: COLO205

ABHD12 = target: T4, ABHD12 (Homo sapiens, UniProt Q8N2K0); assay: as above; format: biochemical; conditions: 30 min
T4 construct: All ABPP-SILAC experiments were performed using the human COLO205 colon cancer cell line; endogenous in cells; host or cells: COLO205

FASN = target: T5, FASN (Homo sapiens, UniProt P49327); assay: as above; format: biochemical; conditions: 30 min
T5 construct: All ABPP-SILAC experiments were performed using the human COLO205 colon cancer cell line; endogenous in cells; host or cells: COLO205

[2] = test system: serine hydrolase targets from mouse brain and COLO205 membrane proteomes; assay: Competitive gel-based ABPP of β-lactone probe set; format: biochemical; conditions: 25 μM, 30 min, 37° C., then FP-rhodamine
Experimental: Competitive gel-based ABPP were performed as described previously with slight modifications. See Adibekian et al. Nat. Chem. Biol. (2011) 7, 469. […] The reactions were quenched by adding 40 μL of 4×SDS-PAGE loading buffer for reducing gels, followed by boiling for 2 minutes. All samples were visualized in-gel using an FMBio II Multiview flatbed fluorescence scanner (Hitachi). The fluorescence from rhodamine is presented in gray scale.

ABHD2 = target: T6, ABHD2 (Homo sapiens, UniProt P08910); assay: ABPP-SILAC of COLO205 membrane proteome treated with compound 8b; format: biochemical; conditions: 30 min
T6 construct: All ABPP-SILAC experiments were performed using the human COLO205 colon cancer cell line; endogenous in cells; host or cells: COLO205

CES2 = target: T7, CES2 (Homo sapiens, UniProt O00748); assay: as above; format: biochemical; conditions: 30 min
T7 construct: All ABPP-SILAC experiments were performed using the human COLO205 colon cancer cell line; endogenous in cells; host or cells: COLO205

PNPLA4 = target: T8, PNPLA4 (Homo sapiens, UniProt P41247); assay: as above; format: biochemical; conditions: 30 min
T8 construct: All ABPP-SILAC experiments were performed using the human COLO205 colon cancer cell line; endogenous in cells; host or cells: COLO205

ABHD16A [3] = target: T2, ABHD16A; assay: ABPP-SILAC, COLO205 cells treated in situ; format: cell-based; set-up: All ABPP-SILAC experiments were performed using the human COLO205 colon cancer cell line; endogenous in cells; host or cells: COLO205; conditions: COLO 205, 4 h
ABHD16A−/− macrophages = assay: Lyso-PS and cytokines of ABHD16A−/− macrophages; format: cell-based, mouse; conditions: basal or LPS stimulation; 1 μM, 4 h
Experimental: Concentration of secreted lyso-PS (a) and cytokines IL-6 (b) and TNF-α (c) from thioglycollate-elicited peritoneal mouse macrophages from ABHD16A^−/− mice treated with inhibitor (KC01 or KC02, 1 μM, 4 h) followed by vehicle (PBS) or LPS (5 μg/mL) for 7 h is shown. Data represent mean±s.e.m. for four biological replicates. KC01 and KC02 have no effect on lyso-PS or cytokine secretion. Other secreted and cellular lipids in ABHD16A^−/− macrophages were also unchanged by KC01 or KC02 treatment (data not shown).
Peritoneal macrophages were elicited and harvested from mice according to the standard protocols available from LIPID MAPS (See http://www.lipidmaps.org/protocols/PP0000001400.pdf and http://www.lipidmaps.org/protocols/PP0000001500.pdf). After removal of the RBC lysis buffer, the macrophages were re-suspended in RPMI 1640 with 10% FCS and IX penicillin-streptomycin. Cell counts measured using a Bio-Rad TC10 automated cell counter, and equal numbers of cells (2×10^6) were plated in 10 cm tissue culture dishes. Macrophages were allowed to adhere to the plates for 2 h at 37° C. and 5% CO2. […] Macrophages were then stimulated with lipopolysaccharide (5 μg/mL) for 7 hours. Sterile PBS was the vehicle in these studies. Four milliliters of the media was used for measuring secreted metabolites, and 0.5 mL was used for cytokine measurements.

ABHD16A [4] = target: T2, ABHD16A; assay: PS substrate assay, human ABHD16A-transfected HEK293T membrane proteome; format: biochemical; set-up: transiently transfected with 12 μg of the full-length cDNA of human ABHD16A (Open Biosystems Catalog # MHS6278-202758315); host or cells: HEK293T, transient, pCMV-SPORT6; conditions: 20 μM, 30 min
Experimental: HEK293T cells were grown to 40% confluence in a 15 cm dish in 25 mL of Dulbecco's modified Eagle medium (DMEM) supplemented with L-glutamine and 10% (vol/vol) FCS at 37° C. and 5% CO2 (vol/vol). The cells were transiently transfected with 12 μg of the full-length cDNA of human ABHD16A (Open Biosystems Catalog # MHS6278-202758315) or murine ABHD16A (Open Biosystems Catalog # MMM1013-202760516) in pCMV-SPORT6 vector using 40 μg polyethyleneimine “MAX” (MW 40,000) (PEI) (Polysciences Inc. Catalog #24765) as the transfection reagent as per manufacturer's instructions. As a “mock” control, an empty vector was transiently transfected. […] Protein concentration was measured using the Bio-Rad DC Protein Assay Kit as per manufacturer's protocol, and ABHD16A expression was confirmed using gel-based ABPP.
All the lipid species used in the lipid substrate hydrolysis assays were purchased from Avanti Polar Lipids Inc unless mentioned otherwise. […] All the data was collected and analyzed using the Agilent MassHunter Workstation software version B.04 using the Data Acquisition and Quantitative Analysis programs respectively. Measuring the area under the peak, and normalizing it to the internal standard quantified the product release for the lipid substrate hydrolysis assays. […] Some products from the substrate hydrolysis assays were detected in positive ion mode for qualitative identification. […]

mouse ABHD16A = target: T9, mouse ABHD16A (Mus musculus, UniProt Q9Z1Q2); assay: PS substrate assay, mouse ABHD16A-transfected HEK293T proteome; format: biochemical; conditions: 20 μM, 30 min, 37° C.
T9 construct: full-length cDNA of human ABHD16A (Open Biosystems Catalog # MHS6278-202758315) or murine ABHD16A (Open Biosystems Catalog # MMM1013-202760516); host or cells: HEK293T, transient, pCMV-SPORT6
T9 sequence (Q9Z1Q2 1-558): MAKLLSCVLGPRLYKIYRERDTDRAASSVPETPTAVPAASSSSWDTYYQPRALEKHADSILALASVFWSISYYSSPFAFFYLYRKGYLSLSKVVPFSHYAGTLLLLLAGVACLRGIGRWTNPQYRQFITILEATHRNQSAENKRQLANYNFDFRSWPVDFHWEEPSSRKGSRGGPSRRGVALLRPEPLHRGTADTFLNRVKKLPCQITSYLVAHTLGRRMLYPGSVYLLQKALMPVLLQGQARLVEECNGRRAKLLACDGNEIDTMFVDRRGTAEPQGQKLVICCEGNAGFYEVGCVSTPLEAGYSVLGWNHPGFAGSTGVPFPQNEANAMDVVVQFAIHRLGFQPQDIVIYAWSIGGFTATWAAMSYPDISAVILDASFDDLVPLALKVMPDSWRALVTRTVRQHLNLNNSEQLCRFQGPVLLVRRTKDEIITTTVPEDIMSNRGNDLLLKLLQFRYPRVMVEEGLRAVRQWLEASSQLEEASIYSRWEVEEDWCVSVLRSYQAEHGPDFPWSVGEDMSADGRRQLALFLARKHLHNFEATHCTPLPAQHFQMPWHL

T5 sequence (P49327 whole entry): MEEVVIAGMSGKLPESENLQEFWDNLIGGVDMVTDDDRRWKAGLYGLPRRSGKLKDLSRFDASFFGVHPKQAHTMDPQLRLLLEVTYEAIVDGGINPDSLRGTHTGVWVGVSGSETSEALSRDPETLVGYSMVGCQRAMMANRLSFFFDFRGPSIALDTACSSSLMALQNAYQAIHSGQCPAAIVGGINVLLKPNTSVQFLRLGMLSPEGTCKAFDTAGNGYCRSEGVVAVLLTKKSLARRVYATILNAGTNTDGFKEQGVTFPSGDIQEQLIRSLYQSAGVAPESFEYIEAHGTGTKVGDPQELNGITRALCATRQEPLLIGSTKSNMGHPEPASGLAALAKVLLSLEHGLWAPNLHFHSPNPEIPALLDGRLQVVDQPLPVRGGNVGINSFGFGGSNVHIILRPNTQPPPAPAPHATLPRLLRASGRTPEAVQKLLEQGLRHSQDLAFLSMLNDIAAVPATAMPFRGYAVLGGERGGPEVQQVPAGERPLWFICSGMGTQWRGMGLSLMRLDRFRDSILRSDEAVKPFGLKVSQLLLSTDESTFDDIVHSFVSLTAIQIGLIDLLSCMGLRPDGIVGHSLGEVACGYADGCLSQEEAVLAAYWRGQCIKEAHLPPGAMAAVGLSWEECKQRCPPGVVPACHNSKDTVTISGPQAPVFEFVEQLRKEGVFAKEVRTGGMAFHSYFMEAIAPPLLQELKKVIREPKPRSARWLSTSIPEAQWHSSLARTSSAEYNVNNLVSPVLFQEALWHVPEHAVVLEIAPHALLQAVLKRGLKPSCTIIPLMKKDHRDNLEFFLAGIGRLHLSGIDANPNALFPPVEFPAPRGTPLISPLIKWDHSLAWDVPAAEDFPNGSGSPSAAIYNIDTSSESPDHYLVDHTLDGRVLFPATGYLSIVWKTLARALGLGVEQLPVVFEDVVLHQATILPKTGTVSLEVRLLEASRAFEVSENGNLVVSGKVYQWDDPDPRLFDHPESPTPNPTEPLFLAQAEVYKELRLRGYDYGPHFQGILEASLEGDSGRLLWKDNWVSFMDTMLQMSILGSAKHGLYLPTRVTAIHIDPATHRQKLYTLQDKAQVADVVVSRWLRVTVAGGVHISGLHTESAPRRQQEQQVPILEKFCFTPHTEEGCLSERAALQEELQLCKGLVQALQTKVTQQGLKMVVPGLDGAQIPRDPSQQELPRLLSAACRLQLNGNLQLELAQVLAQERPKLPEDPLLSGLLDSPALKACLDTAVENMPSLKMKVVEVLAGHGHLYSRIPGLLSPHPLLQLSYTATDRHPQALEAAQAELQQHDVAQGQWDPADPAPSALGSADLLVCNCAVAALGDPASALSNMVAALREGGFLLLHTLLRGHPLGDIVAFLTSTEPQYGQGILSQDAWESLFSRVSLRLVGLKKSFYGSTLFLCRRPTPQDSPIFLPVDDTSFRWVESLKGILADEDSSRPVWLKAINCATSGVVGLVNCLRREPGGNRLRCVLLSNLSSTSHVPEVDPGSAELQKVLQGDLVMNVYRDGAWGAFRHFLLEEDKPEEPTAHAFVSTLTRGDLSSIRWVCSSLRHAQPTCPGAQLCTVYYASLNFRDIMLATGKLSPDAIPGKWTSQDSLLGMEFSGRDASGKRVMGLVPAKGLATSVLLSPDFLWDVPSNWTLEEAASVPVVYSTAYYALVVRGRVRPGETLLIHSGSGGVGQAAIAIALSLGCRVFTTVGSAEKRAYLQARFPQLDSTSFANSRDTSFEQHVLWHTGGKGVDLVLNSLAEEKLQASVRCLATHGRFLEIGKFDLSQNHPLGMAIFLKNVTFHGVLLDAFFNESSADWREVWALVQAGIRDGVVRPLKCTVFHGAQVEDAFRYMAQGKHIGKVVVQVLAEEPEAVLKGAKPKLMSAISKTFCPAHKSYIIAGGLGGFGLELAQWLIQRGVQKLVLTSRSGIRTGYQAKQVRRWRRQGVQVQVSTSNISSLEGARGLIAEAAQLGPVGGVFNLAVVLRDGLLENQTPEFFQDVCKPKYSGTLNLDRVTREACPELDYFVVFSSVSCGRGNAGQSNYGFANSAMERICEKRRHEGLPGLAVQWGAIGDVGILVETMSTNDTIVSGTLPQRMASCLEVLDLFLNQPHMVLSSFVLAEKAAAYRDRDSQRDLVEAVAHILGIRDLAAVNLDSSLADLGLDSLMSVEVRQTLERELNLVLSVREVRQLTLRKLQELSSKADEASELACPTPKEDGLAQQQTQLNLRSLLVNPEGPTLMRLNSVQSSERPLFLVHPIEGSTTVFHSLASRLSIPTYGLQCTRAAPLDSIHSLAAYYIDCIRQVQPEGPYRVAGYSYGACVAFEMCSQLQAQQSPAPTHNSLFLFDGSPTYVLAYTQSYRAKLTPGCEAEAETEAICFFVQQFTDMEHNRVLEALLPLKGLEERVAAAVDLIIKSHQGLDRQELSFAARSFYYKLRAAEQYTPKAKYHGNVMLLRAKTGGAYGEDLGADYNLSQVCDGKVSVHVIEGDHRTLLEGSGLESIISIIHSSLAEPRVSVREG
T4 sequence (Q8N2K0 whole entry): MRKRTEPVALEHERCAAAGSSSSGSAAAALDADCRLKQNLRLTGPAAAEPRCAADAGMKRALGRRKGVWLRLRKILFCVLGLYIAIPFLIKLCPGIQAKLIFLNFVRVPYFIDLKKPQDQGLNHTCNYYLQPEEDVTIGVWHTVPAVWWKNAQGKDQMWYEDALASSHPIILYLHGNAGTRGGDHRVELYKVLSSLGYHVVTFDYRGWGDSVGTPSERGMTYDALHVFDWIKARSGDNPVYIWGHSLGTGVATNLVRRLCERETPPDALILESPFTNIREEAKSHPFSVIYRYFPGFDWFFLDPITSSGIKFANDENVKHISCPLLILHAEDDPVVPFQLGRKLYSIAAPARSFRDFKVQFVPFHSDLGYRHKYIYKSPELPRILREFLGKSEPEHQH
T3 sequence (Q8WU67 whole entry): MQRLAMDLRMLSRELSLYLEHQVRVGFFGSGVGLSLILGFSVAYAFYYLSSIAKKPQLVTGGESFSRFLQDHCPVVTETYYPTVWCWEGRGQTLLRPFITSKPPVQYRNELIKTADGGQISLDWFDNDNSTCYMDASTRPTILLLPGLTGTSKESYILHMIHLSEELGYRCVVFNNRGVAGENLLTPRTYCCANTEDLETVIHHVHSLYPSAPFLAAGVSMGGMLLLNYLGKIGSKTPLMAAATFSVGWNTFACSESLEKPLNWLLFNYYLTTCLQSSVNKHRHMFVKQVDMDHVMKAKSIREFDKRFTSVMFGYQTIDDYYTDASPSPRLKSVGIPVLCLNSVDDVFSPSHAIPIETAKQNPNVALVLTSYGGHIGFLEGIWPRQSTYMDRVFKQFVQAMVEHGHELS
T7 sequence (O00748 27-559): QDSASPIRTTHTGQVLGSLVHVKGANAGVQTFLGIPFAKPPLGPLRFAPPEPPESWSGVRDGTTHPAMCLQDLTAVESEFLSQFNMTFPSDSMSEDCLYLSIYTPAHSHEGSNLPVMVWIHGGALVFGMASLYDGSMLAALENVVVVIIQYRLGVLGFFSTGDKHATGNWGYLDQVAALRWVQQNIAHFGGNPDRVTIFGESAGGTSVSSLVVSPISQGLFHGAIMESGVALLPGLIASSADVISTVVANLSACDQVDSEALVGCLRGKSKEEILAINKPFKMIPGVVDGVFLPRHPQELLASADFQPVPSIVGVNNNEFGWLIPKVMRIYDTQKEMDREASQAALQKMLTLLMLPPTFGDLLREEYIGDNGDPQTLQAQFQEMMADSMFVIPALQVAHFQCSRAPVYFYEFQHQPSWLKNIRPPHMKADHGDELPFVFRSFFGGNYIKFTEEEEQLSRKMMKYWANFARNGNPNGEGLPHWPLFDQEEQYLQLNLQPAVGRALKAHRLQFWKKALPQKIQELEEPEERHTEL
T8 sequence (P41247 whole entry): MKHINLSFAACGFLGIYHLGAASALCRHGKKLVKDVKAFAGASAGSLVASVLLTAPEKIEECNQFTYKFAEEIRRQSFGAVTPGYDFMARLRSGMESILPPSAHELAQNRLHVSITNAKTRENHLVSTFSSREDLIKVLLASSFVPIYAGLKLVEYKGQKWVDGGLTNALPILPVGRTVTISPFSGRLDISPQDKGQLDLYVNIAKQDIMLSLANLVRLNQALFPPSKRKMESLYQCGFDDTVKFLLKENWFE
T1 sequence (O00519 whole entry): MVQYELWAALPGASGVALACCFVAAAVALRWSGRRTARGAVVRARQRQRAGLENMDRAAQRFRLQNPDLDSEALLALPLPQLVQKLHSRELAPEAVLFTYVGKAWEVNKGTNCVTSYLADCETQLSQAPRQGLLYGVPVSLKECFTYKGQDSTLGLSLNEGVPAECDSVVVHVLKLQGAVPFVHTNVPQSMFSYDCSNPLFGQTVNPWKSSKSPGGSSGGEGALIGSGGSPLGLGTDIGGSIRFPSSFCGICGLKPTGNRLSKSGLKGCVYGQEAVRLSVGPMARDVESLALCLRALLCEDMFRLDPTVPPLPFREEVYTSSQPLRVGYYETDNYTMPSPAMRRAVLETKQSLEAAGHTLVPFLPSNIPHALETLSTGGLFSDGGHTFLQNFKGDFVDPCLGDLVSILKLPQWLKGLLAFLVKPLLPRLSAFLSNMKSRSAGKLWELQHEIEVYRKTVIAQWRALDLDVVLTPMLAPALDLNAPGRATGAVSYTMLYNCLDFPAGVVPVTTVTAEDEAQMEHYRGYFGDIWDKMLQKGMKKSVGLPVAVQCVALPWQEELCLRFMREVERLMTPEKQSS

Compound CCCCCCCCCCCCC[C@@H]1OC(=O)[C@H]1Cc1ccccc1 (relative stereo) [Compound 8b, (trans)-3-benzyl-4-tridecyloxetan-2-one] has an inhibition at 25 µM (FAAH) of over 90%, an inhibition at 25 µM (ABHD16A [1]) of over 90% and an inhibition at 25 µM (ABHD3) of 70 to 90%. The inhibition at 25 µM (ABHD12) was over 90%, the inhibition at 25 µM (FASN) was 70 to 90% and the “reactivity / inhibition of serine hydrolase activities” value [2] was “broadest reactivity”. For the same compound, the inhibition at 25 µM (ABHD2) was over 90%, the inhibition at 25 µM (CES2) was over 90% and the inhibition at 25 µM (PNPLA4) was over 90%.
In the case of NC(=O)CCCCC=C1C(=O)OC1CCc1ccccc1 (mixture of isomers) [KC02, (E/Z)-6-(2-Oxo-4-(2-phenethyl)oxetan-3-ylidene)hexanamide], the inhibition at 1 µM (ABHD16A [3]) is reported as under 30% and the “cellular or secreted lyso-PS, other lipids, secreted IL-6 and TNF-α” value (ABHD16A−/− macrophages) is reported as “No changes”.
Work on NC(=O)CCCC/C=C1\C(=O)OC1CCCCCCCCCc1ccccc1 (stereo not drawn) [Compound 15, (Z)-6-(2-Oxo-4-(9-phenylnonyl)oxetan-3-ylidene)hexanamide] yielded a melting point of 93 to 94 °C.
In the case of CCCCCCCCCCCCCC1OC(=O)/C1=C\c1ccccc1 (stereo not drawn) [Compound 3, (Z)-3-benzylidene-4-tridecyloxetan-2-one], the melting point is reported as 61 to 62 °C.
CCCCCCCCCCCCCC1OC(=O)/C1=C\CCCCc1ccccc1 (stereo not drawn) [Compound 4, (Z)-3-(5-phenylpentylidene)-4-tridecyloxetan-2-one] gave a melting point of 34 to 35 °C.
With CCCCCCCCCCC[C@@H](C[C@@H]1OC(=O)[C@H]1CCCCCC)OC(=O)[C@H](CC(C)C)NC=O [THL, tetrahydrolipstatin, reference compound] the “heightened PS lipase activity of ABHD16A-transfected proteome” value (ABHD16A [4]) was “blocked” and the “heightened PS lipase activity of ABHD16A-transfected proteome” value (mouse ABHD16A) was “blocked”.
Compound CCCCCCCCCCCCCC1OC(=O)C1CCCCCC(N)=O (mixture of isomers) [Compound 17, (cis/trans)-6-(2-Oxo-4-tridecyloxetan-3-yl)hexanamide] has a melting point of 98 to 101 °C.
CCCCCCCCCCCCCC1OC(=O)/C1=C\CCCCCS(N)(=O)=O (stereo not drawn) [Compound 16, (Z)-6-(2-Oxo-4-tridecyloxetan-3-ylidene)hexane-1-sulfonamide] showed a melting point of 79 to 80 °C.
